# Laboratory results reported in article PMC5196488 (International Journal for Parasitology: Drugs and Drug …, 2016).
# How the values were obtained:
# S7.1R (Dj-S7.1R) [1] = molecular target: T1, S7.1R (Dj-S7.1R) (Dugesia japonica, UniProt O15969); assay: GloSensor cAMP luminescence in transfected HEK293 cells, peak amplitude; type: cell-based
# T1 sequence (O15969 1-478): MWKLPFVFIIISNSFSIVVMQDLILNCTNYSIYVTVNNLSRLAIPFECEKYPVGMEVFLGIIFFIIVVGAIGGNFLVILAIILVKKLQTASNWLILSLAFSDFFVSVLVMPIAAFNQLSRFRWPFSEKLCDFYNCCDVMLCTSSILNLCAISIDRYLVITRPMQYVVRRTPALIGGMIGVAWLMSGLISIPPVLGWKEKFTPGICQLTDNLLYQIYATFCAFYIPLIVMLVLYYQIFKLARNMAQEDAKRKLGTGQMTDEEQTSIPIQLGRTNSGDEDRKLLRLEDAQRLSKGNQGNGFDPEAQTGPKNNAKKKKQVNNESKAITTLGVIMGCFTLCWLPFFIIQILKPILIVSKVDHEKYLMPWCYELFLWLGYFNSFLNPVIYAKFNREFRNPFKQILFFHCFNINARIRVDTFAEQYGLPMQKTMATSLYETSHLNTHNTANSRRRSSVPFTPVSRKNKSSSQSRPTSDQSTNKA
# S7.1R (Dj-S7.1R) [2] = molecular target: T1, S7.1R (Dj-S7.1R); type: cell-based
structure (smiles),measurement,setting,value
NCCc1c[nH]c2ccc(O)cc12 [5-HT],EC50,S7.1R (Dj-S7.1R) [1],82 ± 5 nM
CC(C)C[C@H]1C(=O)N2CCC[C@H]2[C@]2(O)O[C@](NC(=O)[C@@H]3C=C4c5cccc6[nH]c(Br)c(c56)C[C@H]4N(C)C3)(C(C)C)C(=O)N12 [bromocriptine],IC50,S7.1R (Dj-S7.1R) [2],1800 ± 500 nM
